Results: ChEMBL document CHEMBL3745633, “Synthesis of the biotinylated anti-HIV compound BMMP and the target identification study” (Bioorg Med Chem Lett, 2016)
Calls of active or inactive are those of the source. No cut-off for these calls is given here.

Legend:
[1] = tested on: Human immunodeficiency virus 1; test: Antiviral activity against HIV-1 NL4-3 infected in human M8166 cells assessed as inhibition of viral replication at 20 uM after 5 days by p24 ELISA; format: functional, organism-based
HEK-293T [2] = test: Binding affinity to HIV-1 NL4-3 Pr55Gag expressed in HEK293T cells by surface plasmon resonance analysis; conditions: Human immunodeficiency virus 1
HEK-293T [3] = test: Binding affinity to HIV-1 NL4-3 capsid protein expressed in HEK293T cells by surface plasmon resonance analysis; conditions: Human immunodeficiency virus 1

SMILES	inhibition [1]	Activity (HEK-293T [2])	Activity (HEK-293T [3])
Cc1ccnc(SCc2nc3ccccc3s2)n1	Active		
NCCCCCCc1ccnc(SCc2nc3ccccc3s2)n1	Active		
COC(=O)CCCC[C@@H]1SC[C@@H]2NC(=O)N[C@@H]21	inactive		
O=C(CCCC[C@@H]1SC[C@@H]2NC(=O)N[C@@H]21)NCCCCCCc1ccnc(SCc2nc3ccccc3s2)n1	Active	inactive	inactive
